This note sets out measurements from PubChem BioAssay AID330 (DTP/NCI, 2004).

The experiment deals with P388 leukemia ip, CD2F1 mice, survival T/C. Kind of experiment: NCI In Vivo Anticancer Drug Screen. Data for tumor model P388 Leukemia (intraperitoneal) in CD2F1 (CDF1) mice. Particulars: endpoint: median survival time, higher = longer survival. An outline of the steps: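 Mice carrying the transplanted tumor received test compound or vehicle. Survival was recorded in each group, and the value is the treated-group measurement divided by that of the vehicle-treated control group.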

Where [1] appears, read: dose: 50.0 mg/kg/injection, schedule: Q01DX009 (ip), vehicle: saline with Tween-80.
[2] abbreviates: dose: 50.0 mg/kg/injection, schedule: Q01DX005 (ip), vehicle: saline with Tween-80.
Setting [3] is: dose: 50.0 mg/kg/injection, schedule: Q01DX009 (ip), vehicle: Klucel (hydroxypropylcellulose) (HPC).
Where [4] appears, read: dose: 100.0 mg/kg/injection, schedule: Q01DX005 (ip), vehicle: saline with Tween-80.
Setting [5] is: dose: 100.0 mg/kg/injection, schedule: Q01DX009 (ip), vehicle: Klucel (hydroxypropylcellulose) (HPC).
[6] abbreviates: dose: 200.0 mg/kg/injection, schedule: Q01DX005 (ip), vehicle: saline with Tween-80.
Where [7] appears, read: dose: 200.0 mg/kg/injection, schedule: Q01DX009 (ip), vehicle: Klucel (hydroxypropylcellulose) (HPC).
Where [8] appears, read: dose: 25.0 mg/kg/injection, schedule: Q01DX009 (ip), vehicle: saline.
[9] abbreviates: dose: 50.0 mg/kg/injection, schedule: Q01DX005 (ip), vehicle: saline.
Where [10] appears, read: dose: 100.0 mg/kg/injection, schedule: Q01DX005 (ip), vehicle: saline.

Toxic doses and inconclusive results are not listed.

Regarding `c1ccc2c[n+](CC[n+]3ccc4ccccc4c3)ccc2c1`, the T/C (dose: 25.0 mg/kg/injection, schedule: Q01DX009 (ip), vehicle: saline with Tween-80) was 100 % of control and the T/C under setting [1] was 118 % of control.

Regarding `C=CCCc1cc(OC)ccc1C(=O)C(C)C`, the T/C was 100 % of control (dose: 25.0 mg/kg/injection, schedule: Q01DX009 (ip), vehicle: Klucel (hydroxypropylcellulose) (HPC)); 99 % of control under setting [2]; 104 % of control under setting [3]; 107 % of control under setting [4]; 102 % of control under setting [5]; 100 % of control under setting [6]. Under setting [7], the T/C is 104 % of control.

On to `O=Cc1ccc(S(=O)(=O)F)cc1`, for which the T/C under setting [3] was 99 % of control, the T/C under setting [5] is 97 % of control and the T/C under setting [7] is 93 % of control.

As to `CC(=Nc1ccccc1)C1=C(O)C(CC(C)C)NC1=O` (stereo unspecified), the T/C was 103 % of control under setting [1]; 99 % of control (dose: 100.0 mg/kg/injection, schedule: Q01DX009 (ip), vehicle: saline with Tween-80); 100 % of control (dose: 200.0 mg/kg/injection, schedule: Q01DX009 (ip), vehicle: saline with Tween-80); 110 % of control (dose: 400.0 mg/kg/injection, schedule: Q01DX009 (ip), vehicle: saline with Tween-80).

As for `Cc1ccccc1C1C(C#N)C(=O)NC(=O)C1C#N` (stereo unspecified), the T/C reads like this: under setting [3], 102 % of control; under setting [5], 106 % of control; under setting [7], 110 % of control.

In the case of `COc1ccc(NS(=O)(=O)c2ccc(NC(=O)NCCCl)cc2)nn1`, the T/C reads like this: (dose: 25.0 mg/kg/injection, schedule: Q01DX005 (ip), vehicle: Klucel (hydroxypropylcellulose) (HPC)) 98 % of control; (dose: 50.0 mg/kg/injection, schedule: Q01DX005 (ip), vehicle: Klucel (hydroxypropylcellulose) (HPC)) 98 % of control; (dose: 200.0 mg/kg/injection, schedule: Q01DX005 (ip), vehicle: Klucel (hydroxypropylcellulose) (HPC)) 98 % of control.

`NC(CC(=O)CCl)C(=O)O` (stereo unspecified): the T/C was 154 % of control (dose: 5.0 mg/kg/injection, schedule: Q01DX009 (ip), vehicle: saline with Tween-80); 150 % of control (dose: 6.25 mg/kg/injection, schedule: Q04DX003 (ip), vehicle: saline); 168 % of control (dose: 10.0 mg/kg/injection, schedule: Q01DX009 (ip), vehicle: saline with Tween-80); 166 % of control (dose: 12.5 mg/kg/injection, schedule: Q04DX003 (ip), vehicle: saline); 159 % of control (dose: 20.0 mg/kg/injection, schedule: Q01DX009 (ip), vehicle: saline with Tween-80); 176 % of control (dose: 50.0 mg/kg/injection, schedule: Q04DX003 (ip), vehicle: saline).

With `NC(=O)c1[nH]cnc1N`, the T/C by setting is: under setting [8], 99 % of control; (dose: 50.0 mg/kg/injection, schedule: Q01DX009 (ip), vehicle: saline) 105 % of control; (dose: 100.0 mg/kg/injection, schedule: Q01DX009 (ip), vehicle: saline) 99 % of control; (dose: 400.0 mg/kg/injection, schedule: Q01DX009 (ip), vehicle: saline) 87 % of control.

On to `CC1=C(CCC(=O)O)c2cc3nc(cc4[nH]c(cc4C)cc4[nH]c(cc1n2)cc4C)C(C)(C)C3CCC(=O)O` (stereo unspecified), for which the T/C was 97 % of control (dose: 3.0 mg/kg/injection, schedule: Q01DX009 (ip), vehicle: Klucel (hydroxypropylcellulose) (HPC)); 92 % of control (dose: 6.0 mg/kg/injection, schedule: Q01DX009 (ip), vehicle: Klucel (hydroxypropylcellulose) (HPC)); 90 % of control (dose: 12.0 mg/kg/injection, schedule: Q01DX009 (ip), vehicle: Klucel (hydroxypropylcellulose) (HPC)); 87 % of control (dose: 24.0 mg/kg/injection, schedule: Q01DX009 (ip), vehicle: Klucel (hydroxypropylcellulose) (HPC)).

In the case of `COC1=C(C2=C(OC)C(=O)c3cc4c(c(O)c3C2=O)C(=O)OC(C)C4)C(=O)c2c(cc3c(c2O)C(=O)OC(C)C3)C1=O` (stereo unspecified), the T/C runs as follows: (dose: 6.25 mg/kg/injection, schedule: Q01DX009 (ip), vehicle: saline) 100 % of control; (dose: 12.5 mg/kg/injection, schedule: Q01DX009 (ip), vehicle: saline) 98 % of control; under setting [8], 103 % of control.

As to `COc1cccc2c1C(=O)c1c(O)c3c(c(O)c1C2=O)C[C@@](O)(C(=O)CO)C[C@@H]3OC1CC(N2CCOCC2)C(O)C(C)O1` (stereo partly specified), the T/C reads like this: (dose: 5.0 micrograms/kg/injection, schedule: Q04DX003 (ip), vehicle: water) 102 % of control; (dose: 10.0 micrograms/kg/injection, schedule: Q04DX003 (ip), vehicle: water) 107 % of control; (dose: 20.0 micrograms/kg/injection, schedule: Q04DX003 (ip), vehicle: water) 106 % of control; (dose: 22.0 micrograms/kg/injection, schedule: Q04DX003 (iv), vehicle: saline + alcohol) 153 % of control; (dose: 31.25 micrograms/kg/injection, schedule: Q04DX003 (ip), vehicle: water) 106 % of control; (dose: 33.0 micrograms/kg/injection, schedule: Q04DX003 (iv), vehicle: saline + alcohol) 180 % of control. The T/C (dose: 40.0 micrograms/kg/injection, schedule: Q04DX003 (ip), vehicle: water) is 104 % of control; the T/C (dose: 50.0 micrograms/kg/injection, schedule: Q04DX003 (iv), vehicle: saline + alcohol) was 173 % of control; the T/C (dose: 62.5 micrograms/kg/injection, schedule: Q04DX003 (ip), vehicle: water) is 100 % of control; the T/C (dose: 75.0 micrograms/kg/injection, schedule: Q04DX003 (iv), vehicle: saline + alcohol) is 113 % of control; the T/C (dose: 125.0 micrograms/kg/injection, schedule: Q04DX003 (ip), vehicle: water) is 111 % of control; the T/C (dose: 250.0 micrograms/kg/injection, schedule: Q04DX003 (ip), vehicle: water) is 110 % of control. Moreover, the T/C (dose: 500.0 micrograms/kg/injection, schedule: Q04DX003 (ip), vehicle: water) is 99 % of control.

On to `Cc1ccc2ncccc2c1N` (tested in a mixture with another compound), for which the T/C was 106 % of control (dose: 6.25 mg/kg/injection, schedule: Q01DX009 (ip), vehicle: gum acacia); 113 % of control (dose: 12.5 mg/kg/injection, schedule: Q01DX009 (ip), vehicle: gum acacia); 107 % of control (dose: 25.0 mg/kg/injection, schedule: Q01DX009 (ip), vehicle: gum acacia); 108 % of control (dose: 50.0 mg/kg/injection, schedule: Q01DX009 (ip), vehicle: gum acacia).

As for `CC(=O)Nc1n[nH]c(C)n1`, the T/C runs as follows: (dose: 25.0 mg/kg/injection, schedule: Q01DX005 (ip), vehicle: saline) 97 % of control; under setting [9], 106 % of control; under setting [10], 97 % of control.

With `Cc1cnc2cc(Cl)ccc2c1NCCNCCO`, the T/C under setting [9] is 119 % of control and the T/C under setting [10] was 119 % of control.

On to `C[n+]1c(-c2cc(Cl)cc(Cl)c2)c2cc(N)ccc2c2ccccc21`, for which the T/C (dose: 3.13 mg/kg/injection, schedule: Q01DX009 (ip), vehicle: water) was 120 % of control; the T/C (dose: 6.25 mg/kg/injection, schedule: Q01DX009 (ip), vehicle: water) is 122 % of control; the T/C (dose: 12.5 mg/kg/injection, schedule: Q01DX009 (ip), vehicle: water) was 114 % of control; the T/C (dose: 25.0 mg/kg/injection, schedule: Q01DX009 (ip), vehicle: water) is 102 % of control.

Consider `CCCCCCCN(CCCCCCC)CC(O)c1ccc2cc(Cl)c3ccccc3c2c1` (stereo unspecified), for which the T/C is 107 % of control under setting [2], 112 % of control under setting [4] and 105 % of control under setting [6].

On to `CCCCCC1NC(C)(C)CO1` (stereo unspecified), for which the T/C is 118 % of control under setting [9]; 109 % of control under setting [10]; 100 % of control (dose: 200.0 mg/kg/injection, schedule: Q01DX005 (ip), vehicle: saline).
